pIC50: −log10 of the molar value. The source made the active and inactive calls.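 How the source made its calls: active means maximal inhibition of the USP30 enzyme reaching 30% or more across the dose series; inactive means the rest.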

Sequence of Ubiquitin carboxyl-terminal hydrolase 30 (Homo sapiens) (Q70CQ3 whole entry, looked up): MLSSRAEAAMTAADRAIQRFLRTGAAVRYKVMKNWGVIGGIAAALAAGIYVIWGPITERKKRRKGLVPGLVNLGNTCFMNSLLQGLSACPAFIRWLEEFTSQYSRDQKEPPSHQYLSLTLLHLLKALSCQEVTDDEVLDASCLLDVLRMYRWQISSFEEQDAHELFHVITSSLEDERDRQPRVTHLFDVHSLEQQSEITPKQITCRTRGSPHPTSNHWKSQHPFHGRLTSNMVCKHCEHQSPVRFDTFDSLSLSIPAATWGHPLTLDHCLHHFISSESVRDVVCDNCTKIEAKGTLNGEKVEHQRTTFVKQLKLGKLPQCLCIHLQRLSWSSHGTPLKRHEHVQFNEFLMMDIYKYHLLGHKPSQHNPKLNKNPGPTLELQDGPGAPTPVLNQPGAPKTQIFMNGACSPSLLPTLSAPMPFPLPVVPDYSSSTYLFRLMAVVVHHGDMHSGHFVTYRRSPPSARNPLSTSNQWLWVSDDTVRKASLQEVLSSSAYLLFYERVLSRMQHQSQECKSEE

This test addresses Ubiquitin carboxyl-terminal hydrolase 30 (Homo sapiens) (UniProt Q70CQ3). As to the kind of experiment: inhibitors of ubiquitin-specific protease 30 deubiquitylating enzyme, concentration dependence, in vitro biochemical, validation of primary hits (AID 1645865). To be noted: purified USP30, Ub-rhodamine cleavage, fluorescence, 2 h.
Take `CCOC(=O)c1cccc(NC(=O)Nc2cccn3nc(C)nc23)c1`: the IC50 was > 50 µM (inactive).
For the compound `O=C(NCCc1ccccc1F)c1cn2cc(Cl)ccc2n1`, the pIC50 was 4.41.
Still for that read-out and setting: the result for `Cc1cc(N2CCC(NC(=O)NCc3ccc(F)cc3)C2=O)ccc1F` (stereo unspecified) reads 5.11.
Turning to `CCn1ccc2c(cc(C(=O)Nc3cccc(OC)c3)n2C)c1=O`, the IC50 was > 50 µM (inactive).
The same measure, in the same setting: to `CC(=O)Nc1cccc(NC(=O)COc2cccc3ccc(N4CCCC4)nc23)c1` belongs > 50 µM (inactive).
Consider `C=Cc1ccc(Cn2cc(S(=O)(=O)N3CCOCC3)ccc2=O)cc1`, for which the pIC50 was 4.55.
Still for that read-out and setting: the result for `Cc1cccc(NC(=O)Cn2c(=O)n(Cc3ccc(F)cc3)c(=O)c3sccc32)c1` reads 5.56.
In the case of `Cc1ccccc1Cn1ccc(NC(=O)c2noc(C)c2[N+](=O)[O-])n1`, the IC50 was > 50 µM (inactive).
In the case of `Cc1ccc(Cn2cc(-c3noc(-c4ccc[nH]4)n3)nn2)cc1`, the pIC50 is 4.62.
Still for that read-out and setting: the result for `Cn1c(SCc2ccccc2)nnc1-c1csc(-c2ccccc2)n1` reads 4.65.
For `CCc1nc(-c2cc(C(=O)N3CCOCC3)c3ccccn23)cs1`, the IC50 is > 50 µM (inactive).
Still for that read-out and setting: the result for `CC(=O)Nc1ccc(Cc2nc(-c3ccc4c(c3)nc(C)c(=O)n4C3CCCC3)no2)cc1` reads > 50 µM (inactive).
With `Cc1ccc2c(=O)c3c([nH]c2c1C)CCN(CC(=O)NCc1ccccc1)C3`, the IC50 is > 50 µM (inactive).
As to `Cc1ccccc1NC(=O)c1cc(S(=O)(=O)N2CCCCCC2)ccc1Cl`, the pIC50 is 4.62.
Consider `Cc1ccc2c(c1)N=C(c1ccc([N+](=O)[O-])cc1)CO2`, for which the IC50 was > 50 µM (inactive).
Take `O=C(NCc1ccccc1)Nc1cccc2ccccc12`: the negative logarithm of the IC50 (pIC50) is 4.50.
The same measure, in the same setting: the result for `COCCCNC(=O)c1ccc(Cn2c(=O)c3ccccc3n(CC(=O)NC3CCCCC3)c2=O)cc1` reads 4.60.
With `CC(C)N(C(=O)Cn1c(=O)[nH]c2ccccc21)c1ccccc1`, the IC50 was > 50 µM (inactive).
As for `CCOc1ccc(CCNC(=O)CCC(=O)Nc2ccc3nc(N4CCN(C)CC4)cc(C)c3c2)cc1OCC`, the IC50 was > 50 µM (inactive).
On to `O=C(NCc1cccnc1)c1cnn2c(C(F)(F)F)cc(-c3ccc(F)cc3)nc12`, for which the negative-log IC50 (pIC50) is 4.63.
On the same count and under the same terms, to `COc1ccc(C(=O)C2CC(=O)Nc3c2c(C)nn3-c2ccc(Br)cc2)cc1` (stereo unspecified) belongs 5.47.
Take `Fc1ccccc1Cc1nc(-c2ccc3nncn3c2)no1`: the IC50 is > 50 µM (inactive).
`COc1cccc(N2CCN(C(=O)Nc3ccc4c(c3)NC(=O)CO4)CC2)c1`: the pIC50 is 4.66.
The same measure, in the same setting: to `Clc1cc2nc(N3CCN(c4ccccn4)CC3)c3nncn3c2cc1Cl` belongs 5.67.
`COc1ccc(OC)c(NC(=O)CNC(=O)c2cc3c(OC)cccc3[nH]2)c1`: the IC50 is > 50 µM (inactive).
Consider `O=C(CC(C(=O)Nc1ccc2c(c1)OCO2)C(=O)c1ccccc1)Nc1ccc(Cl)cc1F` (stereo unspecified), for which the negative logarithm of the IC50 (pIC50) was 5.58.
On the same count and under the same terms, to `COc1ccc(CNc2nn3c(-c4cncc(OC)c4)cnc3s2)cc1` belongs 5.82; to `CC(=O)c1cccc(NC(=O)c2ccc(N3CCCCC3)nn2)c1`, 4.45.
`CC(Nc1ncnc2c1sc1nc(N3CCOCC3)c3c(c12)CCC3)c1ccccc1` (stereo unspecified): the pIC50 was 5.44.
Consider `O=C(COc1ccc(F)cc1)Nc1cc(F)c2nc(N3CCOCC3)ccc2c1`, for which the IC50 is > 50 µM (inactive).
With `COc1ccc(Cn2c(=O)[nH]c3cc(C(=O)NCCCN4CCN(c5cccc(Cl)c5)CC4)ccc3c2=O)cc1`, the pIC50 was 5.72.
With `O=C(/C=C/c1ccc(F)cc1)N1CCC(Cc2ccccc2)CC1`, the pIC50 was 4.38.
Same read-out and setting: the result for `Nc1ccc(NC(=O)c2cc3c(s2)CCC3)cc1[N+](=O)[O-]` reads 4.78.
With `O=C(Nc1ccc(-c2nnc3n2CCCCC3)cc1)c1ccc2c(c1)OCO2`, the IC50 was > 50 µM (inactive).
With `O=C(NCc1ccccc1)c1ccc2c(=O)n(-c3ccccc3)c(=O)[nH]c2c1`, the pIC50 is 4.80.
The same measure, in the same setting: the result for `Cc1nc2ccccc2nc1SCC(=O)Nc1ccc2c(c1)OCO2` reads 4.39.
